Measured values reported in PMC6271228, “Diethyl 2-(Phenylcarbamoyl)phenyl Phosphorothioates: Synthesis, Antimycobacterial Activity and Cholinesterase Inhibition” (Molecules, 2014).
≈ marks a conversion by molar mass, not a printed value. Where two headings read alike, the source gives them in different places.

How the values were obtained:
[1] = test system: Mycobacterium tuberculosis My 331/88 (H37Rv); assay: microbe, parasite or virus in culture; assay type: cell-based
M. avium My 330/88 = assay: microbe, parasite or virus in culture; assay type: cell-based, Mycobacterium avium; conditions: for MIC: Mycobacterium avium, 37 °C
M. kansasii My 235/80 = assay: microbe, parasite or virus in culture; assay type: cell-based, Mycobacterium kansasii; conditions: for MIC: Mycobacterium kansasii, 37 °C; for MICs for M. kansasii 235/80: all time points
[2] = test system: M. kansasii 6509/96 (clinically isolated); assay: microbe, parasite or virus in culture; assay type: cell-based; conditions: Mycobacterium kansasii, 37 °C
AChE from electric eel = target: T1, AChE from electric eel (Electrophorus electricus, UniProt O42275); assay: AChE inhibition, modified Ellman's method; assay type: biochemical, Electrophorus electricus L.
T1 construct: Acetylcholinesterase was obtained from electric eel (Electrophorus electricus L.); from tissue; host or cells: electric eel (Electrophorus electricus L.)
Text: (§1) The ability of the tested compounds to inhibit AChE from electric eel (Electrophorus electricus L.) and BChE from equine serum was screened in vitro using modified Ellman’s method for the evaluation of cholinesterase activity. […] […]. These two standards were chosen due to their different structures. […]. The choice of these drugs with different mechanism of action can provide relevant results. All tested compounds expressed a good inhibitory activity with IC50s in low micromolar values.
(§2) The IC50 values were determined using the spectrophotometric Ellman’s method, which is a simple, rapid and direct method to determine the SH and -S-S- group content in proteins. This method is widely used for cholinesterase activity evaluation and screening of the efficiency of cholinesterase inhibitors. Cholinesterase activity is measured indirectly by quantifying the concentration of 5-thio-2-nitrobenzoic acid (TNB) ion formed in the reaction between the thiol reagent 5,5'-dithiobis-2-nitrobenzoic acid (DTNB) and thiocholine, a product of substrate hydrolysis by cholinesterase (i.e., acetylthiocholine, ATCh). All the tested compounds were dissolved in dimethyl sulfoxide (concentration 0.01 M) and then diluted in demineralised water (concentration 0.001 M and 0.0001 M). The Ellman’s method is slightly modified according to Zdrazilova et al.. Acetylcholinesterase was obtained from electric eel (Electrophorus electricus L.) and butyrylcholinesterase from equine serum.

BChE from equine serum = target: T2, BChE from equine serum (Equus caballus, UniProt P81908); assay: BChE inhibition, modified Ellman's method; assay type: biochemical
T2 construct: butyrylcholinesterase from equine serum; from tissue; host or cells: equine serum
Text: as §1, §2

[3] = 336 h, 14 d, 37 °C, read-out: MIC Mtb 331/88 (H37Rv) 14 d
[4] = 504 h, 21 d, 37 °C, read-out: MIC Mtb 331/88 (H37Rv) 21 d
[5] = MY330/88, 336 h, 14 d, read-out: MIC M. avium 330/88 14 d
[6] = MY330/88, 504 h, 21 d, read-out: MIC M. avium 330/88 21 d
[7] = MY235/80, 168 h, 7 d, read-out: MIC M. kansasii 235/80 7 d
[8] = MY235/80, 336 h, 14 d, read-out: MIC M. kansasii 235/80 14 d
[9] = MY235/80, 504 h, 21 d, read-out: MIC M. kansasii 235/80 21 d
[10] = 168 h, 7 d, read-out: MIC M. kansasii 6509/96 7 d
[11] = 336 h, 14 d, read-out: MIC M. kansasii 6509/96 14 d
[12] = 504 h, 21 d, read-out: MIC M. kansasii 6509/96 21 d

T2 sequence (P81908 whole entry): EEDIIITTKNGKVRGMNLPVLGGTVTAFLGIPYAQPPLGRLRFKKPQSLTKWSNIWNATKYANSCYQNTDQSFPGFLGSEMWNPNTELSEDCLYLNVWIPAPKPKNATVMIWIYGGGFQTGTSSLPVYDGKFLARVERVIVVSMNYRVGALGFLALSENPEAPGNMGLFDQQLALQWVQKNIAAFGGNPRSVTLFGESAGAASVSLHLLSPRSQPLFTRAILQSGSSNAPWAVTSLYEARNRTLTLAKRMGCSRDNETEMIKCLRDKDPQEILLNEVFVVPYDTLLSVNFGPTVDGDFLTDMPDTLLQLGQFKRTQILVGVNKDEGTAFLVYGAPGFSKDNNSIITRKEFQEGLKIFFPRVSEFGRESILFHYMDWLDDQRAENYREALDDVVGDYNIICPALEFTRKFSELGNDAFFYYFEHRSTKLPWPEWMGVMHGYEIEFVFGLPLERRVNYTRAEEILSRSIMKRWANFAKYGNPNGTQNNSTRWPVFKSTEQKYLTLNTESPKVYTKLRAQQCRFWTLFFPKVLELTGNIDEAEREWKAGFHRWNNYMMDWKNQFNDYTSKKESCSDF
T1 sequence (O42275 24-633): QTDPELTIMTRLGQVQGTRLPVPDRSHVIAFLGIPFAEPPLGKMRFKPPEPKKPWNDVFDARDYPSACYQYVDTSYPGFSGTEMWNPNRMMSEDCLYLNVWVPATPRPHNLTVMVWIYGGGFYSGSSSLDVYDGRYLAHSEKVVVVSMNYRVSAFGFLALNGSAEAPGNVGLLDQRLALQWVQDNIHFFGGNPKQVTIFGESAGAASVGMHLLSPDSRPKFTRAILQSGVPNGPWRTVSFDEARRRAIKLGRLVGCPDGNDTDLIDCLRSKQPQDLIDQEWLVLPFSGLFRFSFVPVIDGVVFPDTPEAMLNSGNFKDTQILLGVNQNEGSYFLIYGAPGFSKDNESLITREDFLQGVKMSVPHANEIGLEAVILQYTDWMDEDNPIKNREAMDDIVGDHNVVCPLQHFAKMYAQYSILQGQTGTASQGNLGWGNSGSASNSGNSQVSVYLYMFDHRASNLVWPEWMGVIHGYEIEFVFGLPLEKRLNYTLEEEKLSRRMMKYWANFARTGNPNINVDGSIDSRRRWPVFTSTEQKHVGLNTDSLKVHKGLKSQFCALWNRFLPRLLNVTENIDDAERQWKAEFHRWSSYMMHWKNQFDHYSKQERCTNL

In the case of `CCOP(=S)(OCC)Oc1ccc(Br)cc1C(=O)Nc1ccc(C(F)(F)F)cc1` [1i, O-(4-Bromo-2-{[4-(trifluoromethyl)phenyl]carbamoyl}phenyl) O,O-diethyl phosphorothioate], the MIC [1, 3] is reported as 8 µM (≈ 4.1 µg/mL), the MIC [1, 4] is reported as 8 µM (≈ 4.1 µg/mL) and the MIC ([1]; read-out: MIC against Mtb) is reported as 8 µM (≈ 4.1 µg/mL). The MIC (M. avium My 330/88; [5]) was 125 µM (≈ 64 µg/mL), the MIC (M. avium My 330/88; [6]) was 125 µM (≈ 64 µg/mL) and the “MIC values against M. avium” value (M. avium My 330/88; all MIC values (14 and 21 d)) was no more than 250 µM. The MIC (M. kansasii My 235/80; [7]) was 32 µM (≈ 16.4 µg/mL), the MIC (M. kansasii My 235/80; [8]) was 62.5 µM (≈ 32 µg/mL) and the MIC (M. kansasii My 235/80; [9]) was 125 µM (≈ 64 µg/mL). For the same molecule, the “MICs for M. kansasii 235/80” value (M. kansasii My 235/80) was no more than 250 µM, the MIC [2, 10] was 32 µM (≈ 16.4 µg/mL) and the MIC [2, 11] was 62.5 µM (≈ 32 µg/mL). It also gave an MIC [2, 12] of 125 µM (≈ 64 µg/mL), an IC50 (AChE from electric eel) of 11.2 ± 0.02 µM and an IC50 (BChE from equine serum) of 20.2 ± 1.6 µM.

For `CCOP(=S)(OCC)Oc1ccc(Cl)cc1C(=O)Nc1cccc(Cl)c1` [1j, O-{4-Chloro-2-[(3-chlorophenyl)carbamoyl]phenyl} O,O-diethyl phosphorothioate], the MIC [1, 3] was 32 µM (≈ 13.9 µg/mL), the MIC [1, 4] was 62.5 µM (≈ 27.1 µg/mL) and the MIC (M. avium My 330/88; [5]) was greater than 500 µM. For the same molecule, the MIC (M. avium My 330/88; [6]) was greater than 500 µM, the MIC (M. kansasii My 235/80; [7]) was 250 µM (≈ 109 µg/mL) and the MIC (M. kansasii My 235/80; [8]) was 250 µM (≈ 109 µg/mL). For the same molecule, the MIC (M. kansasii My 235/80; [9]) was 500 µM (≈ 217 µg/mL), the MIC [2, 10] was 250 µM (≈ 109 µg/mL) and the MIC [2, 11] was 500 µM (≈ 217 µg/mL). For the same molecule, the MIC [2, 12] was 500 µM (≈ 217 µg/mL), the IC50 (AChE from electric eel) was 9.97 ± 0.24 µM and the IC50 (BChE from equine serum) was 14.8 ± 0.15 µM.

`CCOP(=S)(OCC)Oc1ccc(Cl)cc1C(=O)Nc1ccc(Cl)cc1` [1k, O-{4-Chloro-2-[(4-chlorophenyl)carbamoyl]phenyl} O,O-diethyl phosphorothioate] showed an MIC [1, 3] of 32 µM (≈ 13.9 µg/mL), an MIC [1, 4] of 32 µM (≈ 13.9 µg/mL) and an MIC (M. avium My 330/88; [5]) of 500 µM (≈ 217 µg/mL). The MIC (M. avium My 330/88; [6]) was 500 µM (≈ 217 µg/mL), the MIC (M. kansasii My 235/80; [7]) was 32 µM (≈ 13.9 µg/mL) and the MIC (M. kansasii My 235/80; [8]) was 62.5 µM (≈ 27.1 µg/mL). For the same molecule, the MIC (M. kansasii My 235/80; [9]) was 62.5 µM (≈ 27.1 µg/mL), the “MICs for M. kansasii 235/80” value (M. kansasii My 235/80) was no more than 250 µM and the MIC [2, 10] was 62.5 µM (≈ 27.1 µg/mL). It also gave an MIC [2, 11] of 125 µM (≈ 54.3 µg/mL), an MIC [2, 12] of 125 µM (≈ 54.3 µg/mL) and an IC50 (AChE from electric eel) of 9.78 ± 0.11 µM. It also gave an IC50 (BChE from equine serum) of 12.7 ± 0.1 µM.

Work on `CCOP(=S)(OCC)Oc1ccc(Cl)cc1C(=O)Nc1ccc(Cl)c(Cl)c1` [1l, O-{4-Chloro-2-[(3,4-dichlorophenyl)carbamoyl]phenyl} O,O-diethyl phosphorothioate] yielded an MIC [1, 3] of 8 µM (≈ 3.75 µg/mL), an MIC [1, 4] of 8 µM (≈ 3.75 µg/mL) and an MIC ([1]; read-out: MIC against Mtb) of 8 µM (≈ 3.75 µg/mL). For the same molecule, the MIC (M. avium My 330/88; [5]) was greater than 500 µM, the MIC (M. avium My 330/88; [6]) was greater than 500 µM and the MIC (M. kansasii My 235/80; [7]) was 125 µM (≈ 58.6 µg/mL). For the same molecule, the MIC (M. kansasii My 235/80; [8]) was 250 µM (≈ 117 µg/mL), the MIC (M. kansasii My 235/80; [9]) was 500 µM (≈ 234 µg/mL) and the MIC [2, 10] was 125 µM (≈ 58.6 µg/mL). The MIC [2, 11] was 250 µM (≈ 117 µg/mL), the MIC [2, 12] was 250 µM (≈ 117 µg/mL) and the IC50 (AChE from electric eel) was 9.33 ± 0.11 µM. For the same molecule, the IC50 (BChE from equine serum) was 17.4 ± 0.5 µM.

In the case of `CCOP(=S)(OCC)Oc1ccc(Cl)cc1C(=O)Nc1cccc(Br)c1` [1m, O-{2-[(3-Bromophenyl)carbamoyl]-4-chlorophenyl} O,O-diethyl phosphorothioate], the MIC [1, 3] is reported as 16 µM (≈ 7.66 µg/mL), the MIC [1, 4] is reported as 16 µM (≈ 7.66 µg/mL) and the MIC (M. avium My 330/88; [5]) is reported as 500 µM (≈ 239 µg/mL). For the same molecule, the MIC (M. avium My 330/88; [6]) was 500 µM (≈ 239 µg/mL), the MIC (M. kansasii My 235/80; [7]) was 125 µM (≈ 59.8 µg/mL) and the MIC (M. kansasii My 235/80; [8]) was 500 µM (≈ 239 µg/mL). For the same molecule, the MIC (M. kansasii My 235/80; [9]) was greater than 500 µM, the MIC [2, 10] was 125 µM (≈ 59.8 µg/mL) and the MIC [2, 11] was 500 µM (≈ 239 µg/mL). It also gave an MIC [2, 12] of 500 µM (≈ 239 µg/mL), an IC50 (AChE from electric eel) of 14.1 ± 0.2 µM and an IC50 (BChE from equine serum) of 15.1 ± 1.3 µM.

Work on `CCOP(=S)(OCC)Oc1ccc(Cl)cc1C(=O)Nc1ccc(Br)cc1` [1n, O-{2-[(4-Bromophenyl)carbamoyl]-4-chlorophenyl} O,O-diethyl phosphorothioate] yielded an MIC [1, 3] of 32 µM (≈ 15.3 µg/mL), an MIC [1, 4] of 32 µM (≈ 15.3 µg/mL) and an MIC (M. avium My 330/88; [5]) of 500 µM (≈ 239 µg/mL). For the same molecule, the MIC (M. avium My 330/88; [6]) was 500 µM (≈ 239 µg/mL), the MIC (M. kansasii My 235/80; [7]) was 250 µM (≈ 120 µg/mL) and the MIC (M. kansasii My 235/80; [8]) was 500 µM (≈ 239 µg/mL). The MIC (M. kansasii My 235/80; [9]) was 500 µM (≈ 239 µg/mL), the MIC [2, 10] was 250 µM (≈ 120 µg/mL) and the MIC [2, 11] was 500 µM (≈ 239 µg/mL). It also gave an MIC [2, 12] of 500 µM (≈ 239 µg/mL), an IC50 (AChE from electric eel) of 9.32 ± 0.06 µM and an IC50 (BChE from equine serum) of 15.1 ± 0.1 µM.

For `NNC(=O)c1ccncc1` [INH, isoniazid, reference compound], the MIC [1, 3] was 0.5 to 1 µM (≈ 0.0686 to 0.137 µg/mL), the MIC [1, 4] was 1 µM (≈ 0.137 µg/mL) and the MIC (M. avium My 330/88; [5]) was greater than 250 µM. The MIC (M. avium My 330/88; [6]) was greater than 250 µM, the MIC (M. kansasii My 235/80; [7]) was greater than 250 µM and the MIC (M. kansasii My 235/80; [8]) was greater than 250 µM. For the same molecule, the MIC (M. kansasii My 235/80; [9]) was greater than 250 µM, the MIC [2, 10] was 2 to 4 µM (≈ 0.274 to 0.549 µg/mL) and the MIC [2, 11] was 4 µM (≈ 0.549 µg/mL). For the same molecule, the MIC [2, 12] was 4 to 8 µM (≈ 0.549 to 1.1 µg/mL).

In the case of `Nc1ccc(C(=O)O)c(O)c1` [PAS, para-aminosalicylic acid, reference compound], the MIC [1, 3] is reported as 62.5 µM (≈ 9.57 µg/mL), the MIC [1, 4] is reported as 62.5 µM (≈ 9.57 µg/mL) and the MIC (M. avium My 330/88; [5]) is reported as 32 µM (≈ 4.9 µg/mL). It also gave an MIC (M. avium My 330/88; [6]) of 125 µM (≈ 19.1 µg/mL), an MIC (M. kansasii My 235/80; [7]) of 125 µM (≈ 19.1 µg/mL) and an MIC (M. kansasii My 235/80; [8]) of 1000 µM (≈ 153 µg/mL). The MIC (M. kansasii My 235/80; [9]) was greater than 1000 µM, the MIC [2, 10] was 32 µM (≈ 4.9 µg/mL) and the MIC [2, 11] was 125 µM (≈ 19.1 µg/mL). It also gave an MIC [2, 12] of 500 µM (≈ 76.6 µg/mL).
